Tested on: NOMO1
Assay: cell viability relative to DMSO control; higher = less cytotoxic
Details: 48 h
How it was run: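 Three leukemia lines were tested: NOMO1 and SEM at 500 cells/well and P12-Ichikawa at 1000 cells/well. Each was adapted for at least four passages in each medium and seeded in 5 μl in 1536-well plates, and library compounds in DMSO were pin-dosed from 47 μM to 0.79 nM in 11 threefold steps. After 48 h at 37°C, CellTiter-Glo One luminescence was read. Viability is a percentage relative to DMSO wells on each plate, with cell-free wells as background.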

[1] = HPLM + 10% dialyzed FBS, 0.000781 µM
[2] = HPLM + 10% dialyzed FBS, 0.00234 µM
[3] = HPLM + 10% dialyzed FBS, 0.00702 µM
[4] = HPLM + 10% dialyzed FBS, 0.0211 µM
[5] = HPLM + 10% dialyzed FBS, 0.0632 µM
[6] = HPLM + 10% dialyzed FBS, 0.19 µM
[7] = HPLM + 10% dialyzed FBS, 0.569 µM
[8] = HPLM + 10% dialyzed FBS, 1.71 µM
[9] = HPLM + 10% dialyzed FBS, 5.12 µM
[10] = HPLM + 10% dialyzed FBS, 15.4 µM
[11] = HPLM + 10% dialyzed FBS, 46.1 µM
[12] = RPMI 5 mM glucose + 10% FBS, 0.000781 µM
[13] = RPMI 5 mM glucose + 10% FBS, 0.00234 µM
[14] = RPMI 5 mM glucose + 10% FBS, 0.00702 µM
[15] = RPMI 5 mM glucose + 10% FBS, 0.0211 µM
[16] = RPMI 5 mM glucose + 10% FBS, 0.0632 µM
[17] = RPMI 5 mM glucose + 10% FBS, 0.19 µM
[18] = RPMI 5 mM glucose + 10% FBS, 0.569 µM
[19] = RPMI 5 mM glucose + 10% FBS, 1.71 µM
[20] = RPMI 5 mM glucose + 10% FBS, 5.12 µM
[21] = RPMI 5 mM glucose + 10% FBS, 15.4 µM
[22] = RPMI 5 mM glucose + 10% FBS, 46.1 µM
[23] = RPMI 5 mM glucose + 10% dialyzed FBS, 0.000781 µM
[24] = RPMI 5 mM glucose + 10% dialyzed FBS, 0.00234 µM
[25] = RPMI 5 mM glucose + 10% dialyzed FBS, 0.00702 µM
[26] = RPMI 5 mM glucose + 10% dialyzed FBS, 0.0211 µM
[27] = RPMI 5 mM glucose + 10% dialyzed FBS, 0.0632 µM
[28] = RPMI 5 mM glucose + 10% dialyzed FBS, 0.19 µM
[29] = RPMI 5 mM glucose + 10% dialyzed FBS, 0.569 µM
[30] = RPMI 5 mM glucose + 10% dialyzed FBS, 1.71 µM
[31] = RPMI 5 mM glucose + 10% dialyzed FBS, 5.12 µM
[32] = RPMI 5 mM glucose + 10% dialyzed FBS, 15.4 µM
[33] = RPMI 5 mM glucose + 10% dialyzed FBS, 46.1 µM

SMILES | cell viability [1] | cell viability [2] | cell viability [3] | cell viability [4] | cell viability [5] | cell viability [6] | cell viability [7] | cell viability [8] | cell viability [9] | cell viability [10] | cell viability [11] | cell viability [12] | cell viability [13] | cell viability [14] | cell viability [15] | cell viability [16] | cell viability [17] | cell viability [18] | cell viability [19] | cell viability [20] | cell viability [21] | cell viability [22] | cell viability [23] | cell viability [24] | cell viability [25] | cell viability [26] | cell viability [27] | cell viability [28] | cell viability [29] | cell viability [30] | cell viability [31] | cell viability [32] | cell viability [33]
CCCC1=N[N](C)C2=C1\N=C(/NC2=O)C3=CC(=CC=C3OCC)[S+]([O-])(=O)N4CCN(C)CC4 | 85.1% | 83.9% | 81.6% | 83.7% | 86.1% | 87.9% | 98.8% | 82.4% | 81.1% | 83.6% | 52.8% | 79.5% | 92.9% | 77.4% | 81.6% | 76% | 90.2% | 72% | 83.7% | 77.3% | 79.3% | 76.9% | 94.4% | 88% | 91.9% | 84.5% | 72.3% | 96% | 82.3% | 77.1% | 77.4% | 85.2% | 80.8%
O=C1CCC[C@@H]2[C@H]3CCC[N+]4([O-])CCC[C@@H](CN12)[C@@H]34 (some centres undefined) | 75.3% | 92.3% | 98.9% | 87.6% | 105% | 98.2% | 88.4% | 94.5% | 56.9% | 10.1% | 5.34% | 83.5% | 86.8% | 86.1% | 92.7% | 98.7% | 92% | 107% | 94.1% | 64.3% | 22% | 6.85% | 79.1% | 88.7% | 93.2% | 97.4% | 97.8% | 98.7% | 94.4% | 88.9% | 51.3% | 29.7% | 5.35%
NCCCCCC(=O)O | 97.6% | 95.2% | 104% | 88.4% | 107% | 119% | 110% | 110% | 96.3% | 97% | 99.1% | 91.2% | 94.7% | 108% | 94.2% | 102% | 107% | 86.4% | 92.5% | 97.1% | 88.2% | 95.9% | 80.4% | 92.8% | 107% | 93.4% | 97.3% | 103% | 92.7% | 87.8% | 93.9% | 85.6% | 96.4%
C=CCc1cc(OC)c(O)c(C(=O)NCCO)c1 | 98.4% | 113% | 96% | 105% | 105% | 113% | 107% | 106% | 85.7% | 81.4% | 74.2% | 95.3% | 112% | 103% | 96.1% | 101% | 101% | 96.1% | 106% | 93.4% | 101% | 87.1% | 98.5% | 99.5% | 104% | 106% | 109% | 98.6% | 89.7% | 96.7% | 87.7% | 84% | 79.5%
CN1CCN(Cc2ccc(NC(=O)Nc3ccc(Oc4cc(NC(=O)C5CC5)ncn4)cc3)cc2C(F)(F)F)CC1 | 104% | 104% | 120% | 129% | 143% | 141% | 12% | 4.6% | 3.07% | 2.49% | 0.956% | 110% | 125% | 118% | 125% | 138% | 149% | 22% | 8.28% | 6.02% | 4.38% | 2.32% | 106% | 122% | 114% | 125% | 146% | 161% | 18% | 6.64% | 5.97% | 3.84% | 2.43%
CO[C@@H]1[C@@H](OC(N)=O)[C@@H](O)[C@H](OC2=CC=C3\C(=C(NC(=O)C4=CC=C([O-])C(=C4)CC=C(C)C)/C(=O)OC3=C2C)O)OC1(C)C | 110% | 111% | 122% | 114% | 109% | 120% | 101% | 91.9% | 93.2% | 87% | 31.8% | 91.4% | 101% | 96.6% | 98.1% | 111% | 102% | 116% | 110% | 101% | 86.6% | 26.2% | 114% | 118% | 116% | 118% | 113% | 97.5% | 117% | 120% | 88.5% | 83.9% | 35.9%
NC1CCC(Nc2nc(Nc3ccc(C(=O)N4CCCCC4)cc3)c3ncn(-c4cccc(F)c4)c3n2)CC1 (centres undefined) | 114% | 110% | 119% | 121% | 132% | 117% | 129% | 144% | 107% | 119% | 154% | 117% | 113% | 113% | 126% | 123% | 124% | 129% | 107% | 123% | 128% | 129% | 118% | 114% | 133% | 113% | 121% | 127% | 127% | 121% | 125% | 119% | 123%
C[C@H](NC(=O)Cc1cc(F)cc(F)c1)C(=O)N[C@@H]1C(=O)N(C)c2ccccc2-c2ccccc21 | 99% | 107% | 122% | 126% | 121% | 123% | 96.2% | 118% | 55.6% | 9.2% | 6.63% | 107% | 106% | 115% | 110% | 120% | 112% | 116% | 121% | 109% | 27.3% | 8.18% | 101% | 109% | 121% | 120% | 124% | 117% | 125% | 114% | 125% | 63.6% | 13.8%
CC(C[N+](C)(C)C)OC(N)=O (centres undefined) | 128% | 124% | 121% | 119% | 131% | 128% | 116% | 117% | 119% | 139% | 103% | 115% | 109% | 119% | 106% | 118% | 108% | 108% | 105% | 100% | 101% | 97.5% |  |  |  |  |  |  |  |  |  |  | 
CCCCCCCCOc1ccccc1C(=O)Nc1ccc(C(=O)OCC[N+](C)(CC)CC)cc1 | 101% | 104% | 103% | 104% | 110% | 99.5% | 85.8% | 100% | 78.1% | 88.1% | 28.7% | 84.6% | 94.7% | 93.2% | 83.8% | 93.4% | 86.4% | 90.1% | 83.7% | 82% | 81% | 21.7% | 92.8% | 93.5% | 96.6% | 90.1% | 98.3% | 91.9% | 83.7% | 84.4% | 73.9% | 88.8% | 31.8%
Cc1cccc(N(C)C(=S)Oc2ccc3ccccc3c2)c1 | 110% | 120% | 116% | 124% | 117% | 112% | 123% | 121% | 100% | 92% | 110% | 99.9% | 94.2% | 106% | 107% | 108% | 98.8% | 97.2% | 97.3% | 94.5% | 103% | 99.6% | 98.1% | 105% | 99.8% | 112% | 99.8% | 95.2% | 107% | 110% | 104% | 101% | 106%
CCOc1cc(/C=C2/C(=O)N(c3ccccc3)N=C2C)cc(Cl)c1OCC(=O)OC | 86.1% | 92.5% | 93% | 93.5% | 84.4% | 95.5% | 101% | 96.3% | 87.5% | 77.6% | 85.1% | 81.8% | 80.8% | 82.1% | 89.2% | 93.6% | 89.5% | 93.3% | 88.4% | 78.4% | 91.8% | 83% | 89.2% | 88.5% | 94.9% | 85.5% | 92.6% | 102% | 85% | 82.8% | 86.7% | 84.6% | 87.5%
C/C(=C\c1csc(C)n1)[C@@H]1C[C@@H]2O[C@]2(C)CCC[C@H](C)[C@H](O)[C@@H](C)C(=O)C(C)(C)[C@@H](O)CC(=O)O1 | 22.6% | 28.6% | 32% | 27.8% | 29.6% | 27.8% | 29.6% | 35% | 25.2% | 27.6% | 31.3% | 14.1% | 18.3% | 20.6% | 18.3% | 20.3% | 15.9% | 16.8% | 19.2% | 15.3% | 14.5% | 14.9% | 18.1% | 22.2% | 22.9% | 39.2% | 23.9% | 24.5% | 21.8% | 21.4% | 21.9% | 25% | 20%
FC1=CC=C(CN2\C=C/C=C(/C(=O)N[C@@H](COC3=CC4=C(NC(=O)N4)C=C3)C5=CC=CC=C5)C2=O)C=C1F | 86.7% | 91.5% | 97% | 111% | 103% | 109% | 97.6% | 82.8% | 64.6% | 53.8% | 43.5% | 77.8% | 80.1% | 88.4% | 79.9% | 82.8% | 96.6% | 85.8% | 86.8% | 69.2% | 60.3% | 45.9% | 88.7% | 86.8% | 97.7% | 82.8% | 84.4% | 89.5% | 82.3% | 73.9% | 63.3% | 57.6% | 44.3%
C[N+](C)(C)CC(=O)O.[Cl-] | 63.1% | 90.5% | 85% | 94.9% | 94.4% | 86.3% | 95.6% | 89.5% | 104% | 86.5% | 93.9% | 77.1% | 86% | 80.4% | 81.6% | 85.5% | 87.6% | 87.8% | 80.3% | 83.2% | 84.2% | 81.1% | 68.8% | 88.1% | 79.7% | 89.3% | 90.8% | 89.1% | 92.3% | 91.5% | 83.8% | 92% | 84.7%
